The values that follow come from ChEMBL document CHEMBL1857833, “Screening and optimization of specific chemical series against human African Trypanosomiasis (HAT)”.

≈ marks a conversion by molar mass, not a printed value. Where “and” joins values, the source holds several entries; their conditions need not be identical. Equal values may be shown once. Where only a bound is given, the exact number is not on record here.

A short description of data set [1]: DNDI: in vitro intrinsic clearance in mouse liver microsomes at a concentration of 10uM. In kind it is ADME, Microsome. Particulars: read-out: CLint in vitro. For orientation: Liver microsomes are a subcellular fraction often used to study metabolism.
Data set [2] has as its system Trypanosoma brucei. Kind of data set: DNDI: Inhibition of Human African Trypanosomiasis, SBRI 427, in vitro. In kind it is functional, organism-based.
Data set [3] in a line: DNDI: Cytotoxicity against L929 mouse fibroblasts, CYTO-SP, 24 hour. Particulars: mouse, L929 mouse fibroblasts. In kind it is toxicity, cell-based.
Data set [4] in a line: DNDI: in vitro intrinsic clearance in human liver microsomes at a concentration of 10uM. In kind it is ADME, Microsome.
The nature of data set [5]: DNDI: half life in human liver microsomes at a concentration of 10uM. In kind it is ADME, Microsome.
The nature of data set [6]: DNDI: Solubility in phosphate buffered saline at pH7.4 measured by optical density (turbidimetry) at room temperature (OD-RT). In kind it is physicochemical. Particulars: pH 7.4.
The nature of data set [7]: DNDI: half life in mouse liver microsomes at a concentration of 10uM. In kind it is ADME, Microsome.
Data set [8] in a line: DNDI: Cytotoxicity against L929 mouse fibroblasts, 72 hour. Conditions: mouse, L929 mouse fibroblasts. The class given is toxicity, cell-based.
Data set [9] can be described thus: DNDI: Lipophilicity measured in Chromatographic hydrophobicity index (CHI) assay, pH 7.4. The class given is physicochemical. Conditions: buffer.
The subject of data set [10] is Trypanosoma brucei rhodesiense. In words: DNDI: Inhibition of Human African Trypanosomiasis (HAT), STIB 900, in vitro. The class given is functional, organism-based.
The conditions of data set [11]: mouse, microsomes, 1 µM.
Description: DNDI: in vitro intrinsic clearance in mouse liver microsomes at a concentration of 1uM
Another data set deals with Trypanosoma cruzi. Kind of data set: DNDI: Inhibition of Chagas Disease parasite Trypanosoma cruzi (Tulahuen LacZ, Clone C4), in vitro. The class given is functional, organism-based.
A short description of data set [12]: in vitro. Conditions: mouse.
Description: DNDI: half life in mouse liver microsomes at a concentration of 1uM
Data set [13] has as its system Trypanosoma brucei. In words: DNDI: Mean survival time in days (MSD) of mice after intraperitoneal injection of Human African Trypanosomiasis (HAT), EATRO 110, in vivo at 20 mg/kg/day for 4 days. The class given is functional, Mus musculus.
The subject of the next data set is Plasmodium falciparum. Kind of data set: DNDI: Inhibition of the malaria parasite Plasmodium falciparum, in vitro. Conditions: K1. The class given is functional, organism-based.
A short description of data set [14]: DNDI: Solubility in phosphate buffered saline at pH7.4 measured by nephelometry at room temperature (NEPH-RT). In kind it is physicochemical. Conditions: pH 7.4.
Data set [15] is described as follows: DNDI: Cytotoxicity against L-6 rat myoblasts from skeletal muscle cells. The class given is toxicity, cell-based, L6. Particulars: L-6 rat skeletal muscle myoblasts.
The next data set relates to Leishmania donovani. Kind of data set: DNDI: Inhibition of formation of Leishmania donovani (strain MHOM/ET/67/L82) axenic amastigotes, in vitro. In kind it is functional, organism-based.
Data set [16] in a line: in vitro. Particulars: human.
Description: DNDI: half life in human liver microsomes at a concentration of 1uM
Data set [17] can be described thus: in vitro. Particulars: human. The source holds these as a separate data set.
Description: DNDI: in vitro intrinsic clearance in human liver microsomes at a concentration of 1uM
In data set [18] the test system is Trypanosoma brucei. Kind of data set: DNDI: Inhibition of Human African Trypanosomiasis, Cross 22, in vitro. In kind it is functional, organism-based.
Setting [19] is: Trypanosoma brucei, SBRI 427, read-out: IC50.

The term IC50 denotes the concentration that gives 50% inhibition. In general, half-life refers to how long it takes for the measured level to halve. In general, kinetic solubility refers to the concentration staying in solution when a stock, usually in DMSO, is diluted into the medium. Usually chromatographic logD stands for a lipophilicity value derived from retention on a column. In the case of `CCCCCC(C)NCc1ccc(-c2ccccc2)cc1` (stereo unspecified), in [1], the microsomal CLint at 10 µM came to 126 µL/min/mg. Moreover, in the data set on Trypanosoma brucei [2] (setting [19]), the IC50 turned out to be 0.66 µg/mL (≈ 2.35 µM). This compound had an IC50 at 24 h in [3] of more than 50 µg/mL. In data set [4], this compound came in with a CLint in vitro of 25 µL/min/mg. Moreover, the half-life at 10 µM in [5] came out at 1.9 h; in [7], 0.383 h. Further, in data set [6], the solubility (kinetic) turned out to be 12.5 µM (≈ 3.52 µg/mL). In addition, the IC50 at 72 h in [8] was less than 3.13 µg/mL. The compound further came in with a chromatographic logD in data set [9] of 4.2.

`CCc1cccc(N/C(=N/O)c2ccc(OC)cc2)c1`: the IC50 in [10] stood at 34.3 µg/mL (≈ 127 µM); with Trypanosoma cruzi, 17 µg/mL (≈ 62.9 µM); in the data set with Plasmodium falciparum it was 3.87 µg/mL (≈ 14.3 µM); with Trypanosoma brucei [2] (setting [19]), 0.76 µg/mL (≈ 2.81 µM); in data set [15], 44.7 µg/mL (≈ 165 µM); in the data set on Leishmania donovani it was 26.6 µg/mL (≈ 98.3 µM). Besides, the CLint in vitro in data set [11] stood at 470 µL/min/mg. This compound also displayed a half-life at 1 µM in the data set “in vitro [12]” (liver microsomes, t (1 / 2)) of 0.0333 h. In the data set on Trypanosoma brucei [13], the MSD amounted to 4 days. Besides, the solubility (kinetic) in [14] is more than 200 µM. Also, in data set [3], the IC50 at 24 h is more than 50 µg/mL. This compound also displayed an IC50 at 72 h in data set [8] of more than 10 µg/mL. Also, in data set [9], the chromatographic logD was 3.76.

Compound `O/N=C(\NC1CCCCC1)c1cccnc1` returned a CLint in vitro in [11] of 12 µL/min/mg. Further, the half-life at 1 µM in the data set “in vitro [12]” (microsomes) was 1.17 h; in the data set “in vitro [16]” (microsomes) it was 4.62 h. Moreover, the IC50 in the data set with Trypanosoma brucei [2] (setting [19]) is more than 5 µg/mL. In addition, in data set [14], the solubility (kinetic) was more than 200 µM. Besides, in data set [3], the IC50 at 24 h is 50 µg/mL (≈ 228 µM). In “in vitro [17]” (microsomes), this compound returned a microsomal CLint at 1 µM of 3 µL/min/mg. The compound also had a chromatographic logD in data set [9] of 2.82.

Take `CCCCCC(C)NCc1coc(-c2cccc(OC)c2)n1` (stereo unspecified): the microsomal CLint at 10 µM in data set [1] worked out at 53 µL/min/mg. Moreover, the IC50 with Trypanosoma brucei [2] (setting [19]) amounted to 2.26 µg/mL (≈ 7.47 µM). The compound also came in with a half-maximal inhibitory concentration (IC50) at 24 h in data set [3] of 18 µg/mL (≈ 59.5 µM). This compound yielded a CLint in vitro in [4] of 23 µL/min/mg. The half-life at 10 µM in data set [5] was 2.12 h; in [7] it was 0.9 h. This compound also gave an IC50 at 72 h in data set [8] of 6.95 µg/mL (≈ 23 µM). Also, in data set [9], the chromatographic logD was determined as 4.32.

Turning to `CCCCCC(C)NCc1coc(-c2ccc(C)cc2)n1` (stereo unspecified), the IC50 in [10] was 0.582 µg/mL (≈ 2.03 µM); with Trypanosoma cruzi it was 15.7 µg/mL (≈ 54.8 µM); in the data set on Plasmodium falciparum it was 1.83 µg/mL (≈ 6.39 µM); in the data set on Trypanosoma brucei [2] (setting [19]) it was 1.95 µg/mL (≈ 6.81 µM); in data set [15] it was 12.6 µg/mL (≈ 43.9 µM); in the data set on Leishmania donovani, 13.6 µg/mL (≈ 47.6 µM). For the same compound, in [1], the microsomal CLint at 10 µM came out at 31 µL/min/mg. Also, in data set [3], half-maximal inhibition (IC50 at 24 h) required 17 µg/mL (≈ 59.4 µM). The same compound yielded a kinetic solubility in [6] of 12.5 µM (≈ 3.58 µg/mL). In addition, the half-life at 10 µM in [7] was 1.57 h. Moreover, the midpoint of inhibition in data set [8], the IC50 at 72 h, lay at 5.76 µg/mL (≈ 20.1 µM). Moreover, the chromatographic logD in data set [9] amounted to 4.66.

Consider `CC(C)(C)CN/C(=N\O)c1ccccc1-c1ccccc1`, for which, in data set [11], the CLint in vitro stood at 78 µL/min/mg. Further, the half-life at 1 µM was found to be 0.183 h in the data set “in vitro [12]” (liver microsomes, t (1 / 2)) and 1.12 h in “in vitro [16]” (liver microsomes, t (1 / 2)). Also, in the data set with Trypanosoma brucei [2] (setting [19]), the IC50 came out at 2.02 µg/mL (≈ 7.15 µM). Moreover, in data set [14], the solubility (kinetic) was 50 µM (≈ 14.1 µg/mL). This compound showed an IC50 at 24 h in [3] of more than 50 µg/mL. In addition, the microsomal CLint at 1 µM in the data set “in vitro [17]” (liver microsomes, CLint in vitro) came to 13 µL/min/mg. The same compound came in with a chromatographic logD in [9] of 4.67.

For `CCCCCC(C)NCc1coc(-c2cccc(Cl)c2)n1` (stereo unspecified), in data set [1], the microsomal CLint at 10 µM came out at 28 µL/min/mg. In addition, the 50% inhibitory concentration (IC50) in the data set on Trypanosoma brucei [2] (setting [19]) turned out to be 2.08 µg/mL (≈ 6.78 µM). In [3], the IC50 at 24 h is 14 µg/mL (≈ 45.6 µM). For the same compound, the solubility (kinetic) in data set [6] amounted to 12.5 µM (≈ 3.84 µg/mL). This compound returned a half-life at 10 µM in data set [7] of 1.72 h. This compound also came in with an IC50 at 72 h in data set [8] of 7.27 µg/mL (≈ 23.7 µM). This compound also showed a chromatographic logD in [9] of 5.02.

Regarding `CCCCCC(C)NCc1coc(-c2ccc(-c3ccccc3)cc2)n1` (stereo unspecified), the IC50 in [10] is 0.321 µg/mL (≈ 0.921 µM); with Trypanosoma cruzi, 6.4 µg/mL (≈ 18.4 µM); in the data set on Trypanosoma brucei [18] it was 0.4 µg/mL (≈ 1.15 µM); in the data set on Plasmodium falciparum, 1.68 µg/mL (≈ 4.82 µM); with Trypanosoma brucei [2], 0.25 µg/mL and 0.42 µg/mL; in the data set on Trypanosoma brucei [2] (setting [19]), 0.24 µg/mL (≈ 0.689 µM). In addition, the IC50 was determined as 6.78 µg/mL (≈ 19.5 µM) in data set [15] and 5 µg/mL (≈ 14.3 µM) with Leishmania donovani. The microsomal CLint at 10 µM in data set [1] is 5 µL/min/mg. The compound also returned an IC50 at 24 h in data set [3] of more than 50 µg/mL. In [4], this compound registered a CLint in vitro of 1 µL/min/mg. The half-life at 10 µM in [5] is 79.5 h; in [7], 9.55 h. For the same compound, in data set [6], the kinetic solubility was less than 1 µM. Also, in data set [8], the half-maximal inhibitory concentration (IC50) at 72 h came to 1.83 µg/mL (≈ 5.25 µM). The compound also gave a chromatographic logD in data set [9] of 4.94.
